Values quoted from earlier work as cited in patent publication EP2392318A1 (Laboratorios Liconsa, S.A., priority 2010, dated 2011).

For `CCCCc1nc(Cl)c(CO)n1Cc1ccc(-c2ccccc2-c2nn[nH]n2)cc1` [losartan, 2-butyl-4-chloro-1-[[2'-(1H-tetrazol-5-yl)[1,1'-biphenyl]-4-yl]methyl]-1H-imidazole-5-methanol], the terminal half-life (after being orally administered) is given as “about 2 hours” and the orally absorbed (in the gastrointestinal tract) is given as “about 33%”.
